# Results taken from ChEMBL document CHEMBL1201862, “PubChem BioAssay data set” (2004).
#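 Interpolation was linear, between the two tested concentrations surrounding the appropriate level; five concentrations were tested over 48 hours in 96-well plates. GI50 is the concentration that inhibits growth by half.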 Active and inactive are the calls of the source. Cut-off read from the data, not from the text of the source: active = GI50 up to about 1.1 µM and inactive = higher.
# Columns and labels:
# Assay in all cases: NCI anticancer screen, dose series, 48 h
# 786-0 = tested on: 786-0
# A498 = tested on: A498
# A549 = tested on: A549
# ACHN = tested on: ACHN
# BT-549 = tested on: BT-549
# CAKI-1 = tested on: CAKI-1
# CCRF-CEM = tested on: CCRF-CEM
# COLO 205 = tested on: COLO 205
# DU-145 = tested on: DU-145
# EKVX = tested on: EKVX
# HCT-116 = tested on: HCT-116
# HCT-15 = tested on: HCT-15
# HL-60 = tested on: HL-60
# HOP-62 = tested on: HOP-62
# HOP-92 = tested on: HOP-92
# HT-29 = tested on: HT-29
# Hs-578T = tested on: Hs-578T
# IGROV-1 = tested on: IGROV-1
# K562 = tested on: K562
# KM12 = tested on: KM12
# LOX IMVI = tested on: LOX IMVI
# M14 = tested on: M14
# MCF7 = tested on: MCF7
# MDA-MB-231 = tested on: MDA-MB-231
# MDA-MB-435 = tested on: MDA-MB-435
# MDA-N = tested on: MDA-N
# MOLT-4 = tested on: MOLT-4
# Malme-3M = tested on: Malme-3M
# NCI-H226 = tested on: NCI-H226
# NCI-H23 = tested on: NCI-H23
# NCI-H460 = tested on: NCI-H460
# NCI-H522 = tested on: NCI-H522
# NCI/ADR-RES = tested on: NCI/ADR-RES
# OVCAR-3 = tested on: OVCAR-3
# OVCAR-4 = tested on: OVCAR-4
# OVCAR-5 = tested on: OVCAR-5
# PC-3 = tested on: PC-3
# RPMI-8226 = tested on: RPMI-8226
# RXF 393 = tested on: RXF 393
# SF-268 = tested on: SF-268
# SF-539 = tested on: SF-539
# SK-MEL-28 = tested on: SK-MEL-28
# SK-MEL-2 = tested on: SK-MEL-2
# SK-MEL-5 = tested on: SK-MEL-5
# SK-OV-3 = tested on: SK-OV-3
# SN12C = tested on: SN12C
# SNB-19 = tested on: SNB-19
# SNB-75 = tested on: SNB-75
# SR = tested on: SR
# SW-620 = tested on: SW-620
# T47D = tested on: T47D
# TK-10 = tested on: TK-10
# U-251 = tested on: U-251
# UACC-62 = tested on: UACC-62
# UO-31 = tested on: UO-31
# HCC 2998 = tested on: HCC 2998
# OVCAR-8 = tested on: OVCAR-8
# SF-295 = tested on: SF-295
# UACC-257 = tested on: UACC-257
smiles,measurement,setting,value
CC1(C)CCCOc2cccc(c2)OCCCC(C)(C)C1=O,GI50,786-0,41.5 µM (inactive)
same,GI50,A498,66.2 µM (inactive)
same,GI50,A549,31.7 µM (inactive)
same,GI50,ACHN,36.8 µM (inactive)
same,GI50,BT-549,29.8 µM (inactive)
same,GI50,CAKI-1,46.2 µM (inactive)
same,GI50,CCRF-CEM,16.5 µM (inactive)
same,GI50,COLO 205,49.3 µM (inactive)
same,GI50,DU-145,85.3 µM (inactive)
same,GI50,EKVX,37.3 µM (inactive)
same,GI50,HCT-116,26.6 µM (inactive)
same,GI50,HCT-15,35.5 µM
same,GI50,HL-60,18.1 µM (inactive)
same,GI50,HOP-62,30.6 µM (inactive)
same,GI50,HOP-92,23 µM (inactive)
same,GI50,HT-29,19.8 µM (inactive)
same,GI50,Hs-578T,39.7 µM (inactive)
same,GI50,IGROV-1,39.2 µM (inactive)
same,GI50,K562,14.8 µM (inactive)
same,GI50,KM12,26 µM (inactive)
same,GI50,LOX IMVI,20.7 µM (inactive)
same,GI50,M14,33.9 µM (inactive)
same,GI50,MCF7,31 µM (inactive)
same,GI50,MDA-MB-231,44.1 µM (inactive)
same,GI50,MDA-MB-435,34 µM (inactive)
same,GI50,MDA-N,45.2 µM (inactive)
same,GI50,MOLT-4,12.8 µM (inactive)
same,GI50,Malme-3M,27.6 µM (inactive)
same,GI50,NCI-H226,25.5 µM (inactive)
same,GI50,NCI-H23,31.8 µM (inactive)
same,GI50,NCI-H460,25.1 µM (inactive)
same,GI50,NCI-H522,13.3 µM (inactive)
same,GI50,NCI/ADR-RES,38.3 µM (inactive)
same,GI50,OVCAR-3,22 µM (inactive)
same,GI50,OVCAR-4,27.5 µM (inactive)
same,GI50,OVCAR-5,> 100 µM (inactive)
same,GI50,PC-3,14.8 µM (inactive)
same,GI50,RPMI-8226,26.7 µM (inactive)
same,GI50,RXF 393,17.7 µM (inactive)
same,GI50,SF-268,54.8 µM (inactive)
same,GI50,SF-539,86.5 µM (inactive)
same,GI50,SK-MEL-28,38.5 µM (inactive)
same,GI50,SK-MEL-2,24.9 µM (inactive)
same,GI50,SK-MEL-5,18.4 µM (inactive)
same,GI50,SK-OV-3,33 µM (inactive)
same,GI50,SN12C,45.3 µM (inactive)
same,GI50,SNB-19,80.7 µM (inactive)
same,GI50,SNB-75,30.8 µM (inactive)
same,GI50,SR,34 µM (inactive)
same,GI50,SW-620,27 µM (inactive)
same,GI50,T47D,31.8 µM (inactive)
same,GI50,TK-10,> 100 µM (inactive)
same,GI50,U-251,35.2 µM (inactive)
same,GI50,UACC-62,19.1 µM (inactive)
same,GI50,UO-31,51.4 µM (inactive)
CN(NC(=O)c1ccco1)C1=NCCN1,GI50,786-0,> 100 µM (inactive)
same,GI50,A498,> 100 µM (inactive)
same,GI50,A549,> 100 µM (inactive)
same,GI50,ACHN,> 100 µM (inactive)
same,GI50,BT-549,> 100 µM (inactive)
same,GI50,CCRF-CEM,> 100 µM (inactive)
same,GI50,COLO 205,> 100 µM (inactive)
same,GI50,DU-145,> 100 µM (inactive)
same,GI50,EKVX,> 100 µM (inactive)
same,GI50,HCC 2998,> 100 µM (inactive)
same,GI50,HCT-116,> 100 µM (inactive)
same,GI50,HCT-15,> 100 µM
same,GI50,HL-60,> 100 µM (inactive)
same,GI50,HOP-62,> 100 µM (inactive)
same,GI50,HOP-92,> 100 µM (inactive)
same,GI50,HT-29,> 100 µM (inactive)
same,GI50,Hs-578T,> 100 µM (inactive)
same,GI50,IGROV-1,> 100 µM (inactive)
same,GI50,K562,> 100 µM (inactive)
same,GI50,KM12,> 100 µM (inactive)
same,GI50,LOX IMVI,> 100 µM (inactive)
same,GI50,M14,> 100 µM (inactive)
same,GI50,MCF7,> 100 µM (inactive)
same,GI50,MDA-MB-231,> 100 µM (inactive)
same,GI50,MDA-MB-435,> 100 µM (inactive)
same,GI50,MDA-N,> 100 µM (inactive)
same,GI50,MOLT-4,> 100 µM (inactive)
same,GI50,Malme-3M,> 100 µM (inactive)
same,GI50,NCI-H226,> 100 µM (inactive)
same,GI50,NCI-H23,> 100 µM (inactive)
same,GI50,NCI-H460,> 100 µM (inactive)
same,GI50,NCI-H522,> 100 µM (inactive)
same,GI50,NCI/ADR-RES,> 100 µM (inactive)
same,GI50,OVCAR-3,> 100 µM (inactive)
same,GI50,OVCAR-4,> 100 µM (inactive)
same,GI50,OVCAR-5,> 100 µM (inactive)
same,GI50,OVCAR-8,> 100 µM (inactive)
same,GI50,PC-3,> 100 µM (inactive)
same,GI50,RPMI-8226,> 100 µM (inactive)
same,GI50,RXF 393,> 100 µM (inactive)
same,GI50,SF-268,> 100 µM (inactive)
same,GI50,SF-295,> 100 µM (inactive)
same,GI50,SF-539,> 100 µM (inactive)
same,GI50,SK-MEL-28,> 100 µM (inactive)
same,GI50,SK-MEL-2,> 100 µM (inactive)
same,GI50,SK-MEL-5,> 100 µM (inactive)
same,GI50,SK-OV-3,> 100 µM (inactive)
same,GI50,SN12C,> 100 µM (inactive)
same,GI50,SNB-19,> 100 µM (inactive)
same,GI50,SNB-75,> 100 µM (inactive)
same,GI50,SR,> 100 µM (inactive)
same,GI50,SW-620,> 100 µM (inactive)
same,GI50,T47D,> 100 µM (inactive)
same,GI50,TK-10,> 100 µM (inactive)
same,GI50,U-251,> 100 µM (inactive)
same,GI50,UACC-257,> 100 µM (inactive)
same,GI50,UACC-62,> 100 µM (inactive)
same,GI50,UO-31,> 100 µM (inactive)
CC(C)=CCC(O)C1=CC(=O)c2c(O)ccc(O)c2C1=O (stereo unspecified),GI50,786-0,0.494 µM (active)
same,GI50,A498,1.96 µM (inactive)
same,GI50,A549,4.82 µM (inactive)
same,GI50,ACHN,0.525 µM (active)
same,GI50,BT-549,1.58 µM (inactive)
same,GI50,CAKI-1,0.407 µM (active)
same,GI50,CCRF-CEM,0.075 µM (active)
same,GI50,COLO 205,0.171 µM (active)
same,GI50,DU-145,1.22 µM (inactive)
same,GI50,EKVX,1.54 µM (inactive)
same,GI50,HCC 2998,1.74 µM (inactive)
same,GI50,HCT-116,1.25 µM (inactive)
same,GI50,HCT-15,0.21 µM
same,GI50,HL-60,0.0349 µM (active)
same,GI50,HOP-62,1.82 µM (inactive)
same,GI50,HOP-92,0.641 µM (active)
same,GI50,HT-29,1.97 µM (inactive)
same,GI50,Hs-578T,2.9 µM (inactive)
same,GI50,IGROV-1,1.64 µM (inactive)
same,GI50,K562,0.191 µM (active)
same,GI50,KM12,4.7 µM (inactive)
same,GI50,LOX IMVI,1.22 µM (inactive)
same,GI50,M14,1.16 µM (inactive)
same,GI50,MCF7,0.557 µM (active)
same,GI50,MDA-MB-231,1.55 µM (inactive)
same,GI50,MDA-MB-435,1.31 µM (inactive)
same,GI50,MDA-N,0.805 µM (active)
same,GI50,MOLT-4,0.063 µM (active)
same,GI50,NCI-H226,1.01 µM (active)
same,GI50,NCI-H23,1.13 µM (inactive)
same,GI50,NCI-H460,1.88 µM (inactive)
same,GI50,NCI-H522,0.258 µM (active)
same,GI50,NCI/ADR-RES,2.05 µM (inactive)
same,GI50,OVCAR-3,1.14 µM (inactive)
same,GI50,OVCAR-4,1.76 µM (inactive)
same,GI50,OVCAR-5,1.97 µM (inactive)
same,GI50,OVCAR-8,1.55 µM (inactive)
same,GI50,PC-3,2.23 µM (inactive)
same,GI50,RPMI-8226,0.23 µM (active)
same,GI50,RXF 393,0.745 µM (active)
same,GI50,SF-268,2.27 µM (inactive)
same,GI50,SF-295,2.78 µM (inactive)
same,GI50,SF-539,1.61 µM (inactive)
same,GI50,SK-MEL-28,1.48 µM (inactive)
same,GI50,SK-MEL-2,1.95 µM (inactive)
same,GI50,SK-MEL-5,0.301 µM (active)
same,GI50,SK-OV-3,11.7 µM (inactive)
same,GI50,SN12C,0.664 µM (active)
same,GI50,SNB-19,2.36 µM (inactive)
same,GI50,SNB-75,5.04 µM (inactive)
same,GI50,SR,0.15 µM (active)
same,GI50,SW-620,0.933 µM (active)
same,GI50,T47D,0.39 µM (active)
same,GI50,TK-10,1.53 µM (inactive)
same,GI50,U-251,2.1 µM (inactive)
same,GI50,UACC-257,1.5 µM (inactive)
same,GI50,UACC-62,1.58 µM (inactive)
same,GI50,UO-31,1.38 µM (inactive)
